Paper PMC6274124, “Design, Synthesis and Biological Evaluation of Brain-Targeted Thiamine Disulfide Prodrugs of Ampakine Compound LCX001” (Molecules, 2016)

What was measured:
[1] = Pharmacokinetics of LCX001 in plasma after i.v. administration; assay type: in vivo, Kunming mice; conditions: mice
Procedure: The compounds were injected through the caudal vein of the mice with a single dose equivalent to 1 mg/kg body weight of LCX001, and then blood was collected to analyze the concentration of LCX001 at different intervals by an LC-MS/MS method.
Mice were randomly divided into two groups, 27 in each group, for different sampling times and housed in one cage. Each animal was injected with 7e or LCX001 in 20% w/v hydroxypropyl-β-cyclodextrin and saline (0.45%) solution through the tail vein at a single dose equivalent to 1 mg/kg body weight of LCX001. At appropriate time intervals (5, 10, 30, 45, 60, 90, 120, 240 and 480 min), the animals were sacrificed and 1 mL blood samples withdrawn from the orbital sinus were collected in heparinized tubes. Fifty μL plasma was immediately separated by centrifugation, diluted with 200 μL methanol and stored at −20 °C until assay. Meanwhile, the brain was removed, weighed, homogenized and diluted with methanol to 1:5 (g/mL). The homogenates were also stored at −20 °C until assay. Internal standard (200 ng/mL) was added to the samples. The samples were vortexed for 3 min and then centrifuged at 9500 rpm for 15 min. […] Ten μL samples were analyzed by LC-MS/MS method as described.
The Cmax, AUC0-t, Tmax, MRT0-t and t1/2 were calculated by WinNonlin software (version 5.2.1, Pharsight, Mountain View, CA, USA). […]

[2] = Brain distribution of LCX001 after i.v. administration; assay type: in vivo, Kunming mice; conditions: mice; for AUC0-t: LCX001 in brain, single dose equivalent to 1 mg/kg LCX001, n = 3
Text: To further evaluate the possibility of prodrug 7e being transported across the BBB, the brain distribution of prodrug 7e and LCX001 after injection were detected at fixed time intervals. […] The AUC0-t for prodrug 7e was enhanced to 2.23 times that of LCX001. The MRT0-t was increased to 3.29 times that of LCX001. […] This agreed well with the fact that the “lock-in” effect and sustained release effect of the prodrug 7e could effectively delay the clearance of LCX001.
Mice were randomly divided into two groups, 27 in each group, for different sampling times and housed in one cage. Each animal was injected with 7e or LCX001 in 20% w/v hydroxypropyl-β-cyclodextrin and saline (0.45%) solution through the tail vein at a single dose equivalent to 1 mg/kg body weight of LCX001. At appropriate time intervals (5, 10, 30, 45, 60, 90, 120, 240 and 480 min), the animals were sacrificed and 1 mL blood samples withdrawn from the orbital sinus were collected in heparinized tubes. Fifty μL plasma was immediately separated by centrifugation, diluted with 200 μL methanol and stored at −20 °C until assay. Meanwhile, the brain was removed, weighed, homogenized and diluted with methanol to 1:5 (g/mL). The homogenates were also stored at −20 °C until assay. Internal standard (200 ng/mL) was added to the samples. The samples were vortexed for 3 min and then centrifuged at 9500 rpm for 15 min. Fifty μL supernatants were withdrawn, then 50 μL of water was added to each aliquot and vortexed. Ten μL samples were analyzed by LC-MS/MS method as described.
The Cmax, AUC0-t, Tmax, MRT0-t and t1/2 were calculated by WinNonlin software (version 5.2.1, Pharsight, Mountain View, CA, USA). Statistical evaluation was performed using analysis of variance followed by t-test. A value of p < 0.05 was considered significant.

[3] = Metabolic stability in mice plasma extract at 37 °C; assay type: in vitro ADME; conditions: for half-life at 1.67 µg/mL: mouse
Procedure: (§1) To determine the plasma stability and brain stability of these prodrugs, we assayed the pharmacokinetics of the prepared compounds 7a–7f in mice plasma extract and brain homogenate at 37 °C. The pseudo-first order rate constants of disappearance (Ke) of the prodrugs and their half lives (t1/2) which were calculated by linear regression of Ln of peak area against time in minutes are listed in Table 1.
(§2) Blood was drawn from mice though the orbital sinus and was collected in a heparinized tube paved with heparin sodium. Samples were centrifuged at 10,000 rpm for 16 min to separate plasma which was diluted with four volumes of water. The brain was removed and homogenized. Samples were then placed on ice and used immediately. Ten μL acetonitrile solution (10 μg/mL) of the compound was added to 50 μL of plasma or brain homogenate and gently vortexed. Samples were incubated at 37 °C and aliquots were removed after 0, 5, 15, 30, 60 and 90 min, respectively. One hundred μL acetonitrile was added to each and vortexed. Samples were centrifuged for 10 min to remove proteins and the supernatants were analyzed by LC-MS/MS method as described.

opiate poisoned mice = test: Model of opiate-induced respiratory depression (030418-induced), mortality of mice; assay type: in vivo, Kunming mice; conditions: for Death Rate: 10 min before 030418 15 mg/kg sc
Procedure: To investigate the effect of 7e on opiate-induced respiratory depression, we proceeded with a preliminary pharmacodynamic study in mice. […] Varying doses of prodrug 7e were administered 10 min before 030418 administration. The effect of prodrug 7e and LCX001 on opiate-induced respiratory depression was evaluted by the mortality of mice. […] Further pharmacodynamic studies are currently underway.
A total of 80 male Kunming mice weighing 20–22 g were used in this study. Animals were fed ad libitum with a commercial rodent feed and had free access to drinking water. All animals received human care, and the study protocols complied with the guidelines of the animal center of academy of military medical sciences. Throughout the experiments, the animals were handled according to the international ethical guidelines for the care of laboratory animals.
Respiratory depression in conscious mice was induced by hypodermic (15 mg/kg) administration of 030418. Ten min prior to 030418 administration, animals were randomly assigned to the experimental groups and received an intravenous injection of either saline solution (control), LCX001 (10 mg/kg), prodrug 7e (30 mg/kg, 10 mg/kg, 3 mg/kg, 1 mg/kg or 0.5 mg/kg) (Table 4).
During the experiment, the poisoning time, poisoning symptoms and death time were recorded. The death rate (death number/sample number) was used to evaluate the effect of 7e on opiate-induced respiratory depression.

[4] = Metabolic stability in mice brain homogenate at 37 °C; assay type: in vitro ADME; conditions: for half-life at 1.67 µg/mL: mouse, mouse brain homogenate
Procedure: as §1, §2

[5] = test system: respiratory depression induced by pain relieving opiates; set-up: method as in PMID 19907420; conditions: single oral dose of 1500 mg, without affecting the pain relieving effects; cited from earlier work
[6] = test system: field excitatory postsynaptic potential (EPSP) in the rat dentate gyrus; set-up: method as in earlier work; conditions: cited from earlier work
[7] = test system: damphetamine- stimulated locomotion; set-up: method as in earlier work; conditions: behavioral testing; cited from earlier work

Compound | Ke, pseudo-first order rate constant of disappearance [3] | half-life at 1.67 µg/mL [3] | Ke, pseudo-first order rate constant of disappearance [4] | half-life at 1.67 µg/mL [4] | melting point | other results
C/C(=C(\CCOC(=O)CCCC(=O)O[C@H]1CC[C@H](N(C)C(=O)c2ccc3nonc3c2)CC1)SSCCC(C)C)N(C)C=O [Compound 7e, S-3-(Isoamyldisulfanyl)-4-(N-methylformamido)pent-3-en-1-yl((1R,4R)-4-(N-methylbenzo[c][1,2,5]oxadiazole-5-carboxamido)cyclohexyl) glutarate] | 4.34 min^−1 (×10^−2) | 16 min | 3.69 min^−1 (×10^−2) | 18.8 min | – | MRT of LCX001 in plasma, times that of LCX001 [1]: 0.77 times; AUC0-t [2]: 1125.49 ± 336.57 * h·ng/g; AUC0-t of LCX001 in brain, times that of LCX001 ([2]; brain): 2.23 times; MRT0-t of LCX001 in brain, times that of LCX001 ([2]; brain): 3.29 times; Required molar dose relative to LCX001 to achieve the same effect (opiate poisoned mice; 3 mg/kg 7e gave the same effect as 10 mg/kg LCX001 on reducing mortality): one eighth; Death Rate (opiate poisoned mice; iv 0.5 mg/kg): 50%; Death Rate (opiate poisoned mice; iv 1 mg/kg): 30%; Death Rate (opiate poisoned mice; iv 3 mg/kg): 20%; Death Rate (opiate poisoned mice; iv 10 mg/kg): 0%; Death Rate (opiate poisoned mice; iv 30 mg/kg): 0%
CCCSS/C(CCOC(=O)CCCC(=O)O[C@H]1CC[C@H](N(C)C(=O)c2ccc3nonc3c2)CC1)=C(/C)N(C)C=O [Compound 7b, S-3-(Propyldisulfanyl)-4-(N-methylformamido)pent-3-en-1-yl((1R,4R)-4-(N-methylbenzo[c][1,2,5]oxadiazole-5-carboxamido)cyclohexyl) glutarate] | 7.06 min^−1 (×10^−2) | 9.82 min | 6.82 min^−1 (×10^−2) | 10.2 min | 78 to 79.3 °C | –
C/C(=C(\CCOC(=O)CCCC(=O)O[C@H]1CC[C@H](N(C)C(=O)c2ccc3nonc3c2)CC1)SSCc1ccccc1)N(C)C=O [Compound 7f, S-3-(Benzyldisulfanyl)-4-(N-methylformamido)pent-3-en-1-yl((1R,4R)-4-(N-methylbenzo[c][1,2,5]oxadiazole-5-carboxamido)cyclohexyl) glutarate] | 4.48 min^−1 (×10^−2) | 15.5 min | 5.78 min^−1 (×10^−2) | 12 min | 72.9 to 73.8 °C | –
O=C(c1ccc2nonc2c1)N1CCOCC1 [CX717] | – | – | – | – | – | Effect on opiate-induced respiratory depression [5]: positive effects
CCSS/C(CCOC(=O)CCCC(=O)O[C@H]1CC[C@H](N(C)C(=O)c2ccc3nonc3c2)CC1)=C(/C)N(C)C=O [Compound 7a, S-3-(Ethyldisulfanyl)-4-(N-methylformamido)pent-3-en-1-yl((1R,4R)-4-(N-methylbenzo[c][1,2,5]oxadiazole-5-carboxamido)cyclohexyl) glutarate] | 31.1 min^−1 (×10^−2) | 2.23 min | 19.9 min^−1 (×10^−2) | 3.48 min | 78.8 to 79.5 °C | –
CN(C(=O)c1ccc2nonc2c1)[C@H]1CC[C@H](O)CC1 [LCX001] | – | – | – | – | – | AUC0-t [2]: 504.32 ± 204.71 ng·h/g; Increase in amplitude of the field EPSP [6]: 21%; Inhibition of d-amphetamine-stimulated locomotion [7]: 100%; Death Rate (opiate poisoned mice; iv 10 mg/kg): 20%
CCCCSS/C(CCOC(=O)CCCC(=O)O[C@H]1CC[C@H](N(C)C(=O)c2ccc3nonc3c2)CC1)=C(/C)N(C)C=O [Compound 7c, S-3-(Butyldisulfanyl)-4-(N-methylformamido)pent-3-en-1-yl((1R,4R)-4-(N-methylbenzo[c][1,2,5]oxadiazole-5-carboxamido)cyclohexyl) glutarate] | 6.77 min^−1 (×10^−2) | 10.2 min | 4.05 min^−1 (×10^−2) | 17.1 min | 67.6 to 68.4 °C | –
CCCCCSS/C(CCOC(=O)CCCC(=O)O[C@H]1CC[C@H](N(C)C(=O)c2ccc3nonc3c2)CC1)=C(/C)N(C)C=O [Compound 7d, S-3-(Amyldisulfanyl)-4-(N-methylformamido)pent-3-en-1-yl((1R,4R)-4-(N-methylbenzo[c][1,2,5]oxadiazole-5-carboxamido)cyclohexyl) glutarate] | 4.50 min^−1 (×10^−2) | 15.4 min | 6.34 min^−1 (×10^−2) | 10.9 min | 69.3 to 70.3 °C | –
